{
  "source": "paper PMC11892714",
  "about": "(OTA International, 2025)",
  "assay": "Vancomycin pharmacokinetics, serum concentration after IO vs IV delivery",
  "assay_type": "in vivo, New Zealand White rabbits",
  "conditions": "rabbit, samples T0-T6, LC-MS/MS (Fig. 7A)",
  "data": [
    {"smiles": "CN[C@H](CC(C)C)C(=O)N[C@H]1C(=O)N[C@@H](CC(N)=O)C(=O)N[C@H]2C(=O)N[C@H]3C(=O)N[C@H](C(=O)N[C@H](C(=O)O)c4cc(O)cc(O)c4-c4cc3ccc4O)[C@H](O)c3ccc(c(Cl)c3)Oc3cc2cc(c3O[C@@H]2O[C@H](CO)[C@@H](O)[C@H](O)[C@H]2O[C@H]2C[C@](C)(N)[C@H](O)[C@H](C)O2)Oc2ccc(cc2Cl)[C@H]1O", "note": "[vancomycin]", "values": [
      {"measurement": "Serum vancomycin profile across time, IO delivery", "setting": "30 mg/kg IO over 30 min", "result": "slight peak but remained at relatively consistent serum levels across time points"},
      {"measurement": "Serum vancomycin profile across time, IV delivery", "setting": "30 mg/kg IV over 30 min", "result": "high systemic peak soon after bolus delivery with a steady decline across time"}
    ]}
  ]
}
